# Measurements taken from the NIST ThermoML archive (doi:10.1016/j.fluid.2019.06.021).
# Numbers after ± are expanded uncertainties.
# Settings: Crystal; DTA
row,Normal melting temperature,Structure (SMILES)
1,72.6 ± 0.9 °C,"CCN(C(=O)N(CC)c1ccccc1)c1ccccc1 [1,3-diethyl-1,3-diphenylurea]"
2,113.2 ± 0.9 °C,CC(=O)OCCNc1ccc([N+](=O)[O-])cc1 [2-[(4-nitrophenyl)amino]ethanol 1-acetate]
3,74.8 ± 0.9 °C,O=[N+]([O-])c1ccccc1Nc1ccccc1 [2-nitrodiphenylamine]
4,85.8 ± 0.9 °C,COCCNc1ccc([N+](=O)[O-])cc1 [N-(2-methoxyethyl)-4-nitroaniline]
5,52.5 ± 0.9 °C,c1ccc(Nc2ccccc2)cc1 [diphenylamine]
